As a reminder, the MIC is the least concentration at which growth counts as inhibited.

Read-outs that look alike come from different tables or passages of the source.

The test system of experiment [1] is B. henselae. Nature of the experiment: MIC assay in liquid culture media (OD600). It counts as cell-based, Bartonella henselae. As for the experimental part: (§1) The B. henselae strains used were San Antonio 2, 267HO04, a human clinical isolate and B. vinsonii subsp. berkhoffii. Both the bacteria were initially grown on tryptic soy agar (TSA) supplemented with 5% defibrinated sheep blood plates that were either pre-made (Remel, R01198) or homemade, in a humidified atmosphere at 37° C. with 5% CO2 for 7 days. For the preparation of liquid cultures, an individual well-grown colony from the plate was resuspended in 15 ml Falcon tubes containing 3 mL of either Schneider's insect media supplemented with 10% FBS, or Grace's insect media (Gibco, 11605-094) supplemented with 10% FBS, or BAPGM serum-free liquid media. The cultures grew for 7 more days in the atmosphere as above without shaking. The number of viable bacteria was determined by either plating serial dilutions of the culture on plates for CFU or by live/dead staining. Before every experiment, bacteria were mixed well and passed through 22-gauge needle to break large clumps of bacteria.
(§2) Optical density (OD) of 7-day old bacterial liquid culture that was grown from an individual colony was measured using a spectrophotometer (Bio-Rad, SmartSpec 300, 170-2501). Bacterial culture was then diluted down to an OD of 0.1 ? 3×10^8 cfu/ml with the respective media.
(§3) To determine the MIC of the antibiotics and for the visualization of the bacterial growth, a clear 96-well plate was used. Into each well of a 96-well plate, 50 μl of the 0.1 OD bacterial culture and 50 μl of the liquid media containing antibiotics were added to the wells bringing the total volume to 100 μl of 0.05 OD bacteria (CFU ? 1.5×10^7) in each well. Wells containing only bacteria with solvent used in the dilution of the antibiotics served as a positive control to verify the growth of bacteria. As a negative control, wells containing only media and solvents were used. Each concentration of diluted antibiotic was run in 4 replicates to minimize the error rate. The 96-well plate was covered with the lid and incubated at 37° C. with 5% CO2. OD of the culture was read after 48 hrs and 96 hrs using a hybrid multi-mode microplate reader (Biotek, Synergy H4 hybrid reader) at OD600. The assay was repeated three times.
(§4) Therapeutic agent stocks were prepared in the following solvents: 10 mg/ml of ceftriaxone (USP), doxycycline (Fisher scientific, D9891-1G), gentamicin (Fisher scientific, 1405-41-0), ampicillin (Fisher scientific, 69-52-3) and azlocillin (Flightpath) in sterile cell culture grade water, whereas 5 mg/ml of azithromycin (Sigma, PZ0007-5MG) was dissolved in sterile cell culture grade DMSO. Antibiotics were then aliquoted and stored at either −80° C. or −20° C. until further use. On the day of assay, these stock concentrations were diluted to 1 mg/ml and 100 μg/ml in the respected bacterial culture media for MIC and cell-free, liquid culture MBC assays. For the DH82 cell-based MBC assay, antibiotics were diluted in EMEM media supplemented with 15% heat inactivated FBS.
(§5) The determination of susceptibility to therapeutic agents was performed in liquid culture media. Six different therapeutic agents were tested with multiple different concentrations against B. henselae and B. vinsonii. Therapeutic agent concentrations tested were as follows: Ceftriaxone 0.001, 0.01, 0.1, 0.3, 0.5, 1, 2, and 5 μg/ml; doxycycline 0.001, 0.01, 0.1, 0.3, 0.5, 1, 2, 5, and 10 μg/ml, gentamicin: 0.01, 0.1, 0.3, 0.5, 1, 2, 4, 8, and 16 μg/ml, and azithromycin: 0.001, 0.005, 0.02, 0.1, 0.3, 0.5, 1, 2, 5, and 10 μg/ml, were tested based on previous antibiotic susceptibility studies. The following azlocillin dilutions were included: 0.001, 0.005, 0.01, 0.02, 0.5, 1, 2, and 5 μg/ml. The ampicillin dilutions included were as follows: 0.001, 0.005, 0.01, 0.02, 0.5, 1, 2, 4, and 8 μg/ml. Both the species of Bartonella were susceptible to all the antibiotics that were used in BAPGM and Grace's culture liquid mediums. […]

In experiment [2] the test system is B. vinsonii. The experiment is described as follows: MIC assay in liquid culture media (OD600). It counts as cell-based, B. vinsonii subsp. berkhoffii. The note with it: Grace's insect media. As for the experimental part: as §1, §2, §3, §4, §5
In experiment [3] the test system is B. henselae and B. vinsonii. Nature of the experiment: Cell-free MBC assay, summary over both species. In kind it is cell-based, Bartonella. The note with it: 10 μg/ml. As for the experimental part: Briefly, the bacterial culture that was treated with therapeutic agents for 96 hrs was collected into a 1.5 ml microcentrifuge tubes and centrifuged at 7000 rpm for 10 min. The supernatant was removed, and the bacterial pellet was washed with 1×PBS twice. The bacterial pellet was then resuspended in 100 μL of 1×PBS, plated onto blood agar plates and incubated at 37° C. with 5% CO2 for about 14 days. This assay was repeated three times with all the 6 different antibiotics (azlocillin, azithromycin, ceftriaxone, doxycycline, gentamicin and ampicillin) and at different concentrations.
For this assay, both B. henselae and B. vinsonii were grown in Grace's insect media and were tested against all of the 6 antibiotics (ceftriaxone, doxycycline, gentamicin, azithromycin, azlocillin, ampicillin). […] However, ceftriaxone, gentamicin, azithromycin, and azlocillin were all bactericidal and completely eliminated the growth at concentrations below 10 µg/ml. Table 2 provides comparison of MBCs for B. henselae and B. vinsonii strains in cell-free liquid culture medium determined by incubating the bacteria with antibiotics in a 96-well plate and plating on tryptic soy agar supplemented with 5% sheep blood. Additionally, MBC for B. henselae determined by DH82 cell-based assay (right column) is provided.

In experiment [4] the test system is B. henselae and B. vinsonii. Nature of the experiment: MIC assay, summary over both species. It counts as cell-based, Bartonella. The note with it: BAPGM and Grace's liquid media. As for the experimental part:
as §2, §3
The determination of susceptibility to therapeutic agents was performed in liquid culture media. Six different therapeutic agents were tested with multiple different concentrations against B. henselae and B. vinsonii. Therapeutic agent concentrations tested were as follows: Ceftriaxone 0.001, 0.01, 0.1, 0.3, 0.5, 1, 2, and 5 μg/ml; doxycycline 0.001, 0.01, 0.1, 0.3, 0.5, 1, 2, 5, and 10 μg/ml, gentamicin: 0.01, 0.1, 0.3, 0.5, 1, 2, 4, 8, and 16 μg/ml, and azithromycin: 0.001, 0.005, 0.02, 0.1, 0.3, 0.5, 1, 2, 5, and 10 μg/ml, were tested based on previous antibiotic susceptibility studies. The following azlocillin dilutions were included: 0.001, 0.005, 0.01, 0.02, 0.5, 1, 2, and 5 μg/ml. The ampicillin dilutions included were as follows: 0.001, 0.005, 0.01, 0.02, 0.5, 1, 2, 4, and 8 μg/ml. Both the species of Bartonella were susceptible to all the antibiotics that were used in BAPGM and Grace's culture liquid mediums. MICs ranged from 0.01 to 0.1 μg/ml for ceftriaxone, doxycycline, and ampicillin, 2.0-4.0 μg/ml for gentamicin, 0.1-0.5 μg/ml for azithromycin, and 0.001-0.01 μg/ml for azlocillin. […] However, both the bacteria were not susceptible towards any of the antibiotics when tested in Schneider's insect medium (Table 1).

Where [5] appears, read: Bartonella henselae, BAPGM, read-out: MIC.
The mark [6] stands for this setting: Bartonella henselae, Grace's insect media, read-out: MIC.
The mark [7] stands for this setting: Bartonella henselae, Schneider's insect medium, read-out: MIC.

Take `CC[C@H]1OC(=O)[C@H](C)[C@@H](O[C@H]2C[C@@](C)(OC)[C@@H](O)[C@H](C)O2)[C@H](C)[C@@H](O[C@@H]2O[C@H](C)C[C@H](N(C)C)[C@H]2O)[C@](C)(O)C[C@@H](C)CN(C)[C@H](C)[C@@H](O)[C@]1(C)O` [Azithromycin, azithromycin]: the MIC was 0.005 to 0.02 µg/mL in experiment [1] (setting [5]), 0.3 to 0.5 µg/mL in experiment [1] (setting [6]), above 0.02 µg/mL in experiment [1] (setting [7]) and 0.1 to 0.3 µg/mL in experiment [2] (read-out: MIC). Further, the “growth on blood agar plates” value in experiment [3] is “no growth on blood agar plates”. For the same molecule, the MICs ranged in experiment [4] was 0.1 to 0.5 µg/mL.

For `CC1(C)S[C@@H]2[C@H](NC(=O)[C@H](NC(=O)N3CCNC3=O)c3ccccc3)C(=O)N2[C@H]1C(=O)O` [Azlocillin, azlocillin], the MIC in experiment [1] (setting [5]) is 0.01 to 0.02 µg/mL; in experiment [1] (setting [6]), 0.005 to 0.01 µg/mL; in experiment [1] (setting [7]), above 2 µg/mL; in experiment [2] (read-out: MIC), 0.001 to 0.005 µg/mL. Further, in experiment [3], the “growth on blood agar plates” value was “no growth on blood agar plates”. Moreover, in experiment [4], the MICs ranged was 0.001 to 0.01 µg/mL. Besides, the “susceptibility / inhibition of growth” value in experiment [4] is listed as “most effective in inhibiting the growth of both the species of Bartonella”.

Turning to `CO/N=C(\C(=O)N[C@@H]1C(=O)N2C(C(=O)O)=C(CSc3nc(=O)c(=O)[nH]n3C)CS[C@H]12)c1csc(N)n1` [Ceftriaxone, ceftriaxone], the MIC in experiment [1] (setting [5]) is 0.01 to 0.1 µg/mL; in experiment [1] (setting [6]), 0.01 to 0.1 µg/mL; in experiment [1] (setting [7]), above 0.3 µg/mL; in experiment [2] (read-out: MIC) it was 0 to 0.01 µg/mL. For the same molecule, the “growth on blood agar plates” value in experiment [3] is on record as “no growth on blood agar plates”.

Regarding gentamicin, the MIC in experiment [1] (BAPGM) is 0.1 to 0.5 µg/mL; in experiment [1] (Grace's insect media) it was 2.0 to 4.0 µg/mL; in experiment [1] (Schneider's insect medium), above 1 µg/mL; in experiment [2], 2.0 to 4.0 µg/mL. In addition, the MICs ranged in experiment [4] lay in the range of 2.0 to 4.0 µg/mL.

The record behind these values is patent US20240269158A1, “THERAPEUTIC AGENTS AND METHODS FOR TREATMENT OF BARTONELLOSIS” (THE ADMINISTRATORS OF THE TULANE EDUCATIONAL FUND, priority 2021, published 2024).
